Measurements from BindingDB's records for doi:10.1016/j.chembiol.2010.07.018 (University of Dundee, 2010).
Starred links: 1 amine or outer side, 2 acyl side, 3 side chain; linkers in the order of their positions; H or OH if unused. Non-standard residues stand in square brackets, D forms with d. Residues, ends and D or L forms follow the SMILES beside them. Groups on a side chain read outwards from the residue. βAsp = O=C(O)[C@H](CC(=O)[*:2])N[*:1]; NMeF = CN[C@@H](Cc1ccccc1)C(=O)O; CO = O=C([*:1])[*:2]

Biological target: T1, Endochitinase A1 (Aspergillus fumigatus, UniProt Q873Y0)
T1 sequence (Q873Y0 whole entry): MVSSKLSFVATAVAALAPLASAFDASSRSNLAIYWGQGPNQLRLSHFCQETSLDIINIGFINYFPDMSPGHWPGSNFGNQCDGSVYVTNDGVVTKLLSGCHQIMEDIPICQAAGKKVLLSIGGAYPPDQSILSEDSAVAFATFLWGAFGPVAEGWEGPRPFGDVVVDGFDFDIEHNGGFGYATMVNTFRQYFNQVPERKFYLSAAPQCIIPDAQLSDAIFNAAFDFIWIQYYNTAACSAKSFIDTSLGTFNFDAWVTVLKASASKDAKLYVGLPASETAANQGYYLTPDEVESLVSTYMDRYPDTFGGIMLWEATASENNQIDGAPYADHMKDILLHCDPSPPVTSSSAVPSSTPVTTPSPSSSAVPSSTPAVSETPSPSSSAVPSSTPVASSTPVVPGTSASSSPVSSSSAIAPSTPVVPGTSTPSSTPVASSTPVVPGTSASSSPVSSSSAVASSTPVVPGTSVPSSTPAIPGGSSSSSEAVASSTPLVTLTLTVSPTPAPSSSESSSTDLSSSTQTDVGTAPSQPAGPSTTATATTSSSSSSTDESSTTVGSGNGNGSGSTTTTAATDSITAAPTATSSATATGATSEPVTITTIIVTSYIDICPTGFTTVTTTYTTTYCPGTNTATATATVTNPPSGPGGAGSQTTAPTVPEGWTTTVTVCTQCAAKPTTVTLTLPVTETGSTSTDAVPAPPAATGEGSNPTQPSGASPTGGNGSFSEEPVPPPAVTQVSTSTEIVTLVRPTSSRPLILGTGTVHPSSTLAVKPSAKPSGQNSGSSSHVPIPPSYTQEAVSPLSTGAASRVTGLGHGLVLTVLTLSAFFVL
Experiment: Enzyme Inhibition Assay
Settings: pH 5.5; 37 °C

Compound | IC50 [µM]
CNC(=O)NC(=N)NC1CCCCC1 [Argifin-Derived Fragments, 5] | 42
CNC(=O)NC(N)=Nc1ccccc1 [Argifin-Derived Fragments, 6] | 112
CNC(=O)NC(=N)NCCC[C@@H]1NC(=O)[C@@H](C)NC(=O)C[C@@H](C(=O)O)NC(=O)C[C@@H](C(=O)O)NC(=O)[C@H](Cc2ccccc2)N(C)C1=O [(2R,5S,8S,11S,15S)-8-benzyl-2,7-dimethyl-5-[3-({[(methylcarbamoyl)amino]methanimidoyl}amino)propyl]-3,6,9,13,17-pentaoxo-1,4,7,10,14-pentaazacycloheptadecane-11,15-dicarboxylic acid] (cyclo([NMeF][βAsp][βAsp][dA]R([CO-NHMe]))) | > 3800
CCCN=C(N)NC(=O)NC [Argifin-Derived Fragments, 3] | 62
CCCCNC(=N)NC(=O)NC [Argifin-Derived Fragments, 4] | 38
[H]/N=C(\NC)NC(=O)NC [Argifin-Derived Fragments, 1] | 79
CCN=C(N)NC(=O)NC [Argifin-Derived Fragments, 2] | 310
CNC(=O)NC(N)=NCc1ccccc1 [Argifin-Derived Fragments, 7] | 299
